US12226400B2, “Neuroprotective disruption of Kv2.1/syntaxin interaction by small molecules” (UNIVERSITY OF PITTSBURGH-OF THE COMMONWEALTH SYSTEM OF …, priority 2018, dated 2025)

How the values were obtained:
[1] = test system: primary rat cortical neuron cultures; assay: LDH toxicity assay screening for innate toxicity; assay type: cell-based; details: up to 30 μM for 24 hr
[2] = test system: layer 2/3 corticocallosal neuron AMPAR EPSCs; assay: Slice electrophysiology, evoked AMPAR EPSCs in auditory cortex layer 2/3 corticocallosal neurons; assay type: cell-based, mouse
Protocol: Stereotaxic injections for electrophysiology. Male or female ICR mice P21-30 (Jackson Laboratory) were anesthetized with 3% isoflurane (1.5% maintenance) and placed on the stereotaxic frame (Kopf). Core body temperature was maintained at ˜37° C. with a heating pad and eyes were protected with ophthalmic ointment. Lidocaine (1%) was injected under the scalp and an incision was made into the skin at the midline to expose the skull. […] A volume of ˜0.12 μl fluorospheres was pressure injected (25 psi, 10 ms duration) from capillary pipettes (Drummond Scientific) with a Picospritzer (Parker-Hannifin). After injection, the pipette was held in the brain for 2 min before slowly withdrawing. The scalp of the mouse was closed with cyanoacrylate adhesive. […] Mice were monitored for signs of postoperative stress and pain.
Slice electrophysiology. […] Pipette capacitance was compensated and series resistance for recordings was lower than 15 MΩ and measured throughout the experiments. […]
To evoke AMPAR EPSCs, auditory cortex layer 2/3 neurons were stimulated locally with an Isoflex stimulator (AMPI), through a glass theta electrode containing ACSF, by a single 0.15 ms duration electrical pulse every 30 sec. AMPAR EPSCs were recorded in voltage clamp mode at −70 mV (peak values were averaged over a 0.3 ms time window). […]

In the case of `COc1ccc(CNC(=O)Nc2cccc(-c3nc4ccccc4s3)c2)cc1OC` [cpd5, 3-[3-(1,3-benzothiazol-2-yl)phenyl]-1-[(3,4-dimethoxyphenyl)methyl]urea], the “innate toxicity (LDH)” value [1] is reported as “no innate toxicity”, the “innate toxicity (LDH)” value ([1]; listed as Cpd5) is reported as “No neurotoxicity was observed” and the “AMPAR EPSCs amplitude normalized to control” value ([2]; 10 μM cpd5, p=0.153) is reported as 97.6±0.9%. The “threshold, amplitude or duration of evoked synaptic potentials” value ([2]; Cpd5 10 μM, cortical layer 2/3 projection neurons, acute slices) was “No significant differences”.
